Patent US20180244645A1, “2-AMINO-3-FLUORO-3-(FLUOROMETHYL)-6-METHYL-6-PHENYL-3,4,5,6-TETRAHYDROPYRIDINES AS BACE1 INHIBITORS” (H. Lundbeck A/S, priority 2015, published 2018)

Tested on: Aβ40
Assay: Assessment of Aβ levels in rat brain and plasma following BACE1 inhibition (Aβ40 ELISA)
Type: in vivo
Details: 3 hours post dose, vs vehicle
Protocol: Assessment of Aβ Levels in Rat Brain and Plasma Following BACE1 Inhibition. Animals.
All rat care and experimental procedures were approved by Lundbeck Veterinary Staff, according to Danish legislature. The rats were maintained in a barrier facility with a 12/12-h light/dark cycle and ad libitum food and water access.
Young adult Male Sprague Dawley rats of approximately 250 g weight were purchased from Charles River and received 0-30 mg/kg of vehicle (10% HP betaCD+1M MeSO4, pH 2.5) or test compounds (dissolved in vehicle) only by oral gavage (p.o). The compounds are dosed at a volume of 5 ml/kg. Cohorts of 5-10 animals were established for each treatment condition.
The animals undergoing treatment were closely monitored by veterinary staff for any signs of toxicity. Monitoring parameters included body weight, physical appearance, changes in coat appearance, occurrence of unprovoked behavior, and blunted or exaggerated responses to external stimuli.
At T=180 minutes after initial dosing the animals were stunned and decapitated with a guillotine. Trunk-blood was sampled in EDTA coated tubes after decapitation of the animal. The blood was centrifuged at 2200G at 4° C. for 15 minutes and the plasma was collected and frozen at −80° C. The blood was aliquoted for Aβ ELISA and pharmacokinetic analysis. Immediately following sacrifice, the brain was extracted and split into 2 halves. The right hemibrains were snap frozen on dry ice and stored at −80° C. The left half was dissected; with the front forebrain taken for Aβ ELISA and the remainder used for DMPK analysis. These samples were also snap frozen on dry ice and stored at −80° C. until use for analysis.
The cortex samples were thawed slightly on wet ice before they were homogenized with a small volume dispersing instrument (T10 basic ULTRA-TURRAX®) which was set at speed 5 for approximately 5-7 sec. The tissue was processed in a 10 times volume of the weight, for example 100 mg of tissue was homogenized in 1000 μL of Homogenization buffer. Homogenization buffer: 50 ml Milli Q water+50 nM NaCl+0.2% Diethylamin (DEA)+1 tablet of Complete Protease inhibitor cocktail+1 nM 4-(2-aminoethyl) benzenesulfonyl fluoride hydrochloride irreversible serine protease inhibitor (AEBSF).
After homogenization 450 μL aliquots of the samples were collected into a 1.5 ml Eppendorf tube and placed on wet ice, 0.5% NP-40 (50 ul) was added to all samples and then they were incubated on ice for 30 min. After which all samples were sonicated using an Ultrasonic homogenizer with 20 kHz homogeneous sound (SONOPLUS HD2070, Bandelin Electronic) 10 pulse set at 12-13% power to extract all the Aβ species. The samples were then centrifuged (Ole Dich 157 MPRF Micro centrifuge) at 20000G for 20 minutes at 4° C. After centrifugation […] of the supernatant was pipetted into 6004 microtubes tubes and neutralized with 154 of 1M Tris-HCL buffer.
WAKO 294-62501 Human/Rat Abeta amyloid (40) kit was used for all ELISA analyses. 30 μL plasma samples or 30 μL of the cortex supernatants generated as described above were placed in 600 μL microtubes tubes on wet ice. To this 30 μL of 8M urea (AppliChem A1049, 9025) was added to generate a 2-fold dilution. Both plasma and cortex supernatants were incubated on ice for 30 min. Standard rows were prepared from the standard peptide stock provided in the kit and standard diluent containing 1.6M Urea (200 μL 8M urea+800 μL of standard diluent) and 0.8M urea (400 μL 8M urea+3600 μL Standard diluent). A serial 2-fold dilution of […] from 100 pmol/ml to 0 pmol/L was prepared for the assay.
After incubation with urea, all samples were further diluted by addition of 5 times standard diluent from the Kit. This was done by adding 240 μL Standard Diluent to 60 μL sample/urea mixture, which was then mixed well. 100 μL of each diluted sample was pipetted into designated wells of the ELISA plate in duplicates. The plate was then covered and incubated overnight at 4° C. […]

COc1cnc(C(=O)Nc2ccc(F)c([C@]3(C)CC[C@@](F)(CF)C(N)=N3)c2)cn1 [Compound 5, N-(3-((2S,5S)-6-Amino-5-fluoro-5-(fluoromethyl)-2-methyl-2,3,4,5-tetrahydropyridin-2-yl)-4-fluorophenyl)-5-methoxypyrazine-2-carboxamide]
Aβ40 reduction, Brain Rat (10 mg/kg p.o.): 56% | Aβ40 reduction, Brain Rat (30 mg/kg p.o.): 65% | Aβ40 reduction, Plasma Rat (10 mg/kg p.o.): 44% | Aβ40 reduction, Plasma Rat (30 mg/kg p.o.): 46%

C[C@@]1(c2cc(NC(=O)c3cnc(C(F)F)cn3)ccc2F)CC[C@@](F)(CF)C(N)=N1 [Compound 11, N-(3-((2S,5S)-6-Amino-5-fluoro-5-(fluoromethyl)-2-methyl-2,3,4,5-tetrahydropyridin-2-yl)-4-fluorophenyl)-5-(difluoromethyl)pyrazine-2-carboxamide]
Aβ40 reduction, Brain Rat (10 mg/kg p.o.): 21% | Aβ40 reduction, Brain Rat (30 mg/kg p.o.): 41% | Aβ40 reduction, Plasma Rat (10 mg/kg p.o.): 39% | Aβ40 reduction, Plasma Rat (30 mg/kg p.o.): 60%

C[C@@]1(c2cc(NC(=O)c3ccc(F)cn3)ccc2F)CC[C@@](F)(CF)C(N)=N1 [Compound 13, N-(3-((2S,5S)-6-Amino-5-fluoro-5-(fluoromethyl)-2-methyl-2,3,4,5-tetrahydropyridin-2-yl)-4-fluorophenyl)-5-fluoropicolinamide]
Aβ40 reduction, Brain Rat (10 mg/kg p.o.): 43% | Aβ40 reduction, Brain Rat (30 mg/kg p.o.): 59% | Aβ40 reduction, Plasma Rat (10 mg/kg p.o.): 38% | Aβ40 reduction, Plasma Rat (30 mg/kg p.o.): 38%
